Data as given in patent US9067897B2, “2,4-Diaminoquinazolines for spinal muscular atrophy” (Families of Spinal Muscular Atrophy, priority 2004, dated 2015).
Counter-ions that a name gives are not always drawn.

How the values were obtained:
SMN2 promoter = SMN2 promoter assay (β-lactamase reporter) in NSC-34 cells; format: cell-based, mouse; conditions: Mus musculus, SMN2 promoter driving β-lactamase, 12 point dose curve, average of 3-6 dose curve experiments
SMN = conditions: cited from earlier work

Row | Compound | EC50 (SMN2 promoter) [µM] | SMN expression (SMN)
1 | CC(CC(O)(c1ccc(Cl)cc1)c1ccc(Cl)cc1)Oc1cccc2nc(N)nc(N)c12 (stereo not drawn) [Example 168, 1,1-Bis-(4-chlorophenyl)-3-(2,4-diaminoquinazolin-5-yloxy)butan-1-ol] | 1 to 5 | –
2 | COC(COc1cccc2nc(N)nc(N)c12)c1ccc2c(c1)OCO2 (stereo not drawn) [Example 169, 5-(2-Benzo[1,3]dioxol-5-yl-2-methoxyethoxy)quinazoline-2,4-diamine hydrochloride] | < 1 | –
3 | Nc1nc(N)c2c(OC(CO)c3ccc4c(c3)OCO4)cccc2n1 (stereo not drawn) [Example 170, 2-Benzo[1,3]dioxol-5-yl-2-(2,4-diaminoquinazolin-5-yloxy)ethanol hydrochloride] | < 1 | –
4 | CCCC(=O)[O-].[Na+] [sodium butyrate] | – | increase SMN expession
5 | phenylbuytreate | – | increase SMN expession

The next lines start with results.

Row | EC50 (SMN2 promoter) [µM] | Compound | SMN expression (SMN)
6 | < 1 | Nc1nc(N)c2c(OCC(O)c3ccc(C(F)(F)F)cc3)cccc2n1 (stereo not drawn) [Example 163, 2-(2,4-Diaminoquinazolin-5-yloxy)-1-(4-trifluoromethylphenyl)ethanol] | –
7 | < 1 | Nc1nc(N)c2c(OC(CO)c3ccc(Cl)cc3)cccc2n1 (stereo not drawn) [Example 164, 2-(4-Chlorophenyl)-2-(2,4-diaminoquinazolin-5-yloxy)ethanol hydrochloride] | –
8 | < 1 | COC(COc1cccc2nc(N)nc(N)c12)c1ccc(Cl)cc1 (stereo not drawn) [Example 165, 5-[2-(4-Chlorophenyl)-2-methoxyethoxy]quinazoline-2,4-diamine] | –
9 | < 1 | COCC(Oc1cccc2nc(N)nc(N)c12)c1ccccc1 (stereo not drawn) [Example 166, 5-(2-Methoxy-1-phenylethoxy)quinazoline-2,4-diamine] | –
